Data published in publication PMC10477886, “Adamantaniline Derivatives Target ATP5B to Inhibit Translation of Hypoxia Inducible Factor‐1α” (Advanced Science, 2023).

What was measured:
[1] = test system: HIF‐1α transcriptional activity; assay: dual‐luciferase assay (HRE‐Firefly Luciferase / renilla) of HIF‐1α transcriptional activity in HEK293T cells; assay type: cell-based, human; conditions: mean ± s.d. (n = 3); for inhibition at 10 µM: read-out: Inhibition rate [%] @ 10 µM; for IC50: HEK293T dual‐luciferase
Text: To screen HIF‐1α inhibitors in a robust cell‐based assay, we optimized the dual‐luciferase assay with pLenti‐HIF‐1αP2A (P402A and P564A) instead of pLenti‐HIF‐1α in order to ensure the expression of HIF‐1α under normoxia condition. In the cell‐based assay, HEK293T cells were co‐transfected with pLenti‐HIF‐1αP2A, renilla, and hypoxia‐responsive element (HRE)‐Firefly Luciferase (Figure S1, Supporting Information). […] Three compounds were selected as the positive controls including two inhibitors (PX‐478 2HCl and BAY 87‐2243) and an activator (BAY 85‐3934) in the screening assay.
HEK293T cells were stably transfected with reporter plasmids pGMLV‐HRE‐LUC‐puromycin, pMSCV‐renilla‐hygromycin, and pLenti‐HIF‐1αP2A‐neomycin. Stable cell line constructed above, 293‐HIF‐1αP2A‐HRE‐Fluc‐Rluc, were seeded in 384‐well plates and cultured in DMEM with 10% FBS. The following day, the cells were pretreated with indicated chemical compounds from the National Compound Library of the Shanghai Institute of Materia Medica, Chinese Academy of Sciences by Mosquito HTS. The plate was then placed in an incubator chamber and incubated at 37 °C for 24 h. The ratio of firefly/renilla luciferase activity was determined by using the Envision (PerkinElmer).
Stable cell line 293‐HRE‐Fluc‐Rluc expressed luciferase and renilla or HEK293T cells transfected with indicated plasmids (pGL3‐HRE‐luciferase and pSV40‐renilla) were seeded in a 96‐well plate. The cells were co‐incubated with indicated compounds for 24 h and luciferase activities were detected in Microplate Reader (BioTek SYNEGRY H1) using the Dual Luciferase Reporter Assay System Kit (Promega, USA E1910) according to the manufacturer's instruction. The relative Luc activity was normalized by renilla activity. Three independent experiments were performed, and the calculated means and SDs are presented.

[2] = plasma concentration and pharmacokinetics after intraperitoneal administration in ICR mice; assay type: in vivo; conditions: intraperitoneal 50 mg kg^−1, two mice per compound, five times
Description: First, we roughly screened the concentrations in the plasma of seven selected compounds (1‐3n, 1‐3au, 1‐4a, 1‐4k, 1‐4l, 1‐4m, and 1‐4p) at indicated times after intraperitoneal administration in the Institute of Cancer Research (ICR) mice at a dose of 50 mg kg^−1 with two mice per compound, the blood at five different times was collected and the plasma concentration was analyzed finally. […] Besides, we examined the toxicity of HI‐104 in ICR mice by administering for 1 week at a dose of 100 mg kg^−1 by intraperitoneal injection.

[3] = Homo sapiens, HEK-293T, 10 µM, incubation 24 h, HEK293T

In the case of `O=C(Nc1ccc(C23CC4CC(CC(C4)C2)C3)cc1)c1cccc(O)c1` [1‐3n, N‐(4‐((3r,5r,7r)‐Adamantan‐1‐yl)Phenyl)−3‐Hydroxybenzamide], the inhibition at 10 µM [1, 3] is reported as 99.7 ± 0.1%, the IC50 ([1]; Homo sapiens, HEK-293T) is reported as 26 ± 5 nM and the “concentration in the plasma (rough screen)” value (from here on “concentration in the plasma”) [2] is reported as “barely detectable in the plasma”.
For `CC(=O)Nc1cccc(C(=O)Nc2ccc(C34CC5CC(CC(C5)C3)C4)cc2)c1` [1‐3w, 3‐Acetamido‐N‐(4‐((3r,5r,7r)‐Adamantan‐1‐yl)Phenyl)Benzamide], the inhibition at 10 µM [1, 3] was 77.4 ± 2.3% and the IC50 ([1]; Homo sapiens, HEK-293T) was 1900 ± 200 nM.
Molecule `CC(=O)Nc1ccc(C(=O)Nc2ccc(C34CC5CC(CC(C5)C3)C4)cc2)cc1` [1‐3x, 4‐Acetamido‐N‐(4‐((3r,5r,7r)‐Adamantan‐1‐yl)Phenyl)Benzamide] has an inhibition at 10 µM [1, 3] of 84.4 ± 1.9% and an IC50 ([1]; Homo sapiens, HEK-293T) of 950 ± 110 nM.
With `O=C(CCCC[C@@H]1SC[C@@H]2NC(=O)N[C@@H]21)Nc1ccc(C(=O)Nc2ccc(C34CC5CC(CC(C5)C3)C4)cc2)cc1` [1‐3y, N‐(4‐((3r,5r,7r)‐Adamantan‐1‐yl)Phenyl)−4‐(5‐((3aS,4S,6aR)−2‐Oxohexahydro‐1H‐Thieno[3,4‐d]Imidazol‐4‐yl)Pentanamido)Benzamide] the “Inhibition rate [%] @ 10 µM” value ([1]; 10 µM, incubation 24 h, HEK293T) was 90.4 ± 0.8% and the IC50 [1] was 280 ± 100 nM.
For `O=C(Nc1ccc(C23CC4CC(CC(C4)C2)C3)cc1)c1ccccn1` [1‐4a, N‐(4‐((3r,5r,7r)‐Adamantan‐1‐yl)Phenyl)Picolinamide], the inhibition at 10 µM [1, 3] was 99.7 ± 0.2%, the IC50 ([1]; Homo sapiens, HEK-293T) was 65 ± 22 nM and the “concentration in the plasma” value [2] was “barely detectable in the plasma”.
For `O=C(Nc1ccc(C23CC4CC(CC(C4)C2)C3)cc1)c1cccnc1` [1‐4b, N‐(4‐((3r,5r,7r)‐Adamantan‐1‐yl)Phenyl)Nicotinamide], the inhibition at 10 µM [1, 3] was 75.2 ± 1.9%.
`O=C(Nc1ccc(C23CC4CC(CC(C4)C2)C3)cc1)c1ccncc1` [1‐4c, N‐(4‐((3r,5r,7r)‐Adamantan‐1‐yl)Phenyl)Isonicotinamide] showed an inhibition at 10 µM [1, 3] of 41.6 ± 2%.
In the case of `O=C(Nc1ccc(C23CC4CC(CC(C4)C2)C3)cc1)c1ccncn1` [1‐4d, N‐(4‐((3r,5r,7r)‐Adamantan‐1‐yl)Phenyl)Pyrimidine‐4‐Carboxamide], the inhibition at 10 µM [1, 3] is reported as 97.1 ± 0.4% and the IC50 ([1]; Homo sapiens, HEK-293T) is reported as 280 ± 60 nM.
Molecule `Cc1cnc(C(=O)Nc2ccc(C34CC5CC(CC(C5)C3)C4)cc2)cn1` [1‐4e] has an inhibition at 10 µM [1, 3] of 36.3 ± 4.2%.
With `COc1ccc(C(=O)Nc2ccc(C34CC5CC(CC(C5)C3)C4)cc2)nc1` [1‐4f] the inhibition at 10 µM [1, 3] was 36.1 ± 5.6%.
For `COc1ccnc(C(=O)Nc2ccc(C34CC5CC(CC(C5)C3)C4)cc2)c1` [1‐4g, N‐(4‐((3r,5r,7r)‐Adamantan‐1‐yl)Phenyl)−4‐Methoxypicolinamide], the inhibition at 10 µM [1, 3] was 68.5 ± 0.4%.
`O=C(Nc1ccc(C23CC4CC(CC(C4)C2)C3)cc1)c1cc(Cl)ccn1` [1‐4h, N‐(4‐((3r,5r,7r)‐Adamantan‐1‐yl)Phenyl)−4‐Chloropicolinamide] gave an inhibition at 10 µM [1, 3] of 91.5 ± 1.3% and an IC50 ([1]; Homo sapiens, HEK-293T) of 720 ± 20 nM.
For `O=C(Nc1ccc(C23CC4CC(CC(C4)C2)C3)cc1)c1cncs1` [1‐4i, N‐(4‐((3r,5r,7r)‐Adamantan‐1‐yl)Phenyl)thiazole‐5‐Carboxamide], the inhibition at 10 µM [1, 3] was 97.1 ± 0.4% and the IC50 ([1]; Homo sapiens, HEK-293T) was 520 ± 20 nM.
Work on `O=C(Nc1ccc(C23CC4CC(CC(C4)C2)C3)cc1)c1cccs1` [1‐4j, N‐(4‐((3r,5r,7r)‐Adamantan‐1‐yl)Phenyl)Thiophene‐2‐Carboxamide] yielded an inhibition at 10 µM [1, 3] of 98.7 ± 0.6% and an IC50 ([1]; Homo sapiens, HEK-293T) of 390 ± 10 nM.
In the case of `O=C(Nc1ccc(C23CC4CC(CC(C4)C2)C3)cc1)c1c[nH]cn1` [1‐4k, N‐(4‐((3r,5r,7r)‐Adamantan‐1‐yl)Phenyl)−1H‐Imidazole‐4‐Carboxamide], the inhibition at 10 µM [1, 3] is reported as 99.7 ± 0.2%, the IC50 ([1]; Homo sapiens, HEK-293T) is reported as 86 ± 3 nM and the “concentration in the plasma” value [2] is reported as “barely detectable in the plasma”.
`Cn1cccc1C(=O)Nc1ccc(C23CC4CC(CC(C4)C2)C3)cc1` [1‐4n, N‐(4‐((3r,5r,7r)‐Adamantan‐1‐yl)Phenyl)−1‐Methyl‐1H‐Pyrrole‐2‐Carboxamide] gave an inhibition at 10 µM [1, 3] of 57.5 ± 2%.
For `O=C(Nc1ccc(C23CC4CC(CC(C4)C2)C3)cc1)c1ccsc1` [1‐4o, N‐(4‐((3r,5r,7r)‐Adamantan‐1‐yl)Phenyl)Thiophene‐3‐Carboxamide], the inhibition at 10 µM [1, 3] was 48.5 ± 8.7%.
Molecule `Nc1cccc(C(=O)Nc2ccc(C34CC5CC(CC(C5)C3)C4)cc2)n1` [1‐4q, N‐(4‐((3r,5r,7r)‐Adamantan‐1‐yl)Phenyl)−6‐Aminopicolinamide] has an inhibition at 10 µM [1, 3] of 98.6 ± 0.1% and an IC50 ([1]; Homo sapiens, HEK-293T) of 110 ± 20 nM.
For `Nc1cccnc1C(=O)Nc1ccc(C23CC4CC(CC(C4)C2)C3)cc1` [1‐4r, N‐(4‐((3r,5r,7r)‐Adamantan‐1‐yl)Phenyl)−3‐Aminopicolinamide], the inhibition at 10 µM [1, 3] was 97.5 ± 1% and the IC50 ([1]; Homo sapiens, HEK-293T) was 170 ± 20 nM.
`O=C(NC1C2CC3CC(C2)CC1C3)c1ccc(NC(=O)c2ccccn2)cc1` [2‐3a, N‐(4‐(((1R,3S,5r,7r)‐Adamantan‐2‐yl)Carbamoyl)Phenyl)Picolinamide] showed an inhibition at 10 µM [1, 3] of 78.5 ± 4.5% and an IC50 ([1]; Homo sapiens, HEK-293T) of 1500 ± 200 nM.
For `O=C(CC12CC3CC(CC(C3)C1)C2)Nc1ccc(NC(=O)c2ccccn2)cc1` [2‐3b, N‐(4‐(2‐((3r,5r,7r)‐Adamantan‐1‐yl)Acetamido)Phenyl)Picolinamide], the inhibition at 10 µM [1, 3] was 68 ± 4.7% and the IC50 ([1]; Homo sapiens, HEK-293T) was 3500 ± 1000 nM.
`CC(NC(=O)c1ccc(NC(=O)c2ccccn2)cc1)C12CC3CC(CC(C3)C1)C2` (stereo not drawn) [2‐3c, N‐(4‐((1‐((3r,5r,7r)‐Adamantan‐1‐yl)Ethyl)Carbamoyl)Phenyl)Picolinamide] showed an inhibition at 10 µM [1, 3] of 79.9 ± 2% and an IC50 ([1]; Homo sapiens, HEK-293T) of 2100 ± 400 nM.
With `Cc1cc(C23CC4CC(CC(C4)C2)C3)cc(C)c1NC(=O)c1cccc(Cl)c1` [3‐2a, N‐(4‐((3r,5r,7r)‐Adamantan‐1‐yl)−2,6‐Dimethylphenyl)−3‐Chlorobenzamide] the inhibition at 10 µM [1, 3] was 34.8 ± 3.8%.
Work on `CC(C)c1cc(C23CC4CC(CC(C4)C2)C3)cc(C(C)C)c1NC(=O)c1cccc(Cl)c1` [3‐2b, N‐(4‐((3r,5r,7r)‐Adamantan‐1‐yl)−2,6‐Diisopropylphenyl)−3‐Chlorobenzamide] yielded an inhibition at 10 µM [1, 3] of 27 ± 4.9%.
Work on `O=C(Nc1ncc(C23CC4CC(CC(C4)C2)C3)cn1)c1cccc(Cl)c1` [3‐2c, N‐(5‐((3r,5r,7r)‐Adamantan‐1‐yl)Pyrimidin‐2‐yl)−3‐Chlorobenzamide] yielded an inhibition at 10 µM [1, 3] of 65.3 ± 4.3%.
`CC(=O)Nc1ccc(C(=O)Nc2ccc(C34CC5CC(C)(CC(C)(C5)C3)C4)cc2)cc1` [3‐2d] showed an inhibition at 10 µM [1, 3] of 31.4 ± 4.5%.
`CC12CC3CC(C)(C1)CC(c1ccc(NC(=O)c4cccc(Cl)c4)cc1)(C3)C2` [3‐2e, 3‐Chloro‐N‐(4‐((1r,3R,5S,7r)−3,5‐Dimethyladamantan‐1‐yl)Phenyl)Benzamide] gave an inhibition at 10 µM [1, 3] of 27.1 ± 1%.
For `Cc1cc(C23CC4CC(C)(CC(C)(C4)C2)C3)cc(C)c1NC(=O)c1cccc(Cl)c1` [3‐2f, 3‐Chloro‐N‐(4‐((1r,3R,5S,7r)−3,5‐Dimethyladamantan‐1‐yl)−2,6‐Dimethylphenyl)Benzamide], the inhibition at 10 µM [1, 3] was 65.7 ± 6.7%.
Molecule `CC12CC3CC(C)(C1)CC(c1cnc(NC(=O)c4cccc(Cl)c4)nc1)(C3)C2` [3‐2g, 3‐Chloro‐N‐(5‐((1r,3R,5S,7r)−3,5‐Dimethyladamantan‐1‐yl)Pyrimidin‐2‐yl)Benzamide] has an inhibition at 10 µM [1, 3] of 27.8 ± 8.8%.
Molecule `CCc1cc(C23CC4CC(C)(CC(C)(C4)C2)C3)cc(CC)c1NC(=O)c1cccc(Cl)c1` [3‐2h, 3‐Chloro‐N‐(4‐((1r,3R,5S,7r)−3,5‐Dimethyladamantan‐1‐yl)−2,6‐Diethylphenyl)Benzamide] has an inhibition at 10 µM [1, 3] of 30 ± 8.4%.
`CCc1cc(C23CC4CC(CC(C4)C2)C3)cc(CC)c1NC(=O)c1cccc(Cl)c1` [3‐2i, N‐(4‐((3r,5r,7r)‐Adamantan‐1‐yl)−2,6‐Diethylphenyl)−3‐Chlorobenzamide] gave an inhibition at 10 µM [1, 3] of 35.1 ± 5.7%.
With `COC(=O)c1ccc(O)c(NC(=O)COc2ccc(C34CC5CC(CC(C5)C3)C4)cc2)c1` [LW6, reference compound] the inhibition at 10 µM [1, 3] was 70.9 ± 3.7% and the IC50 ([1]; Homo sapiens, HEK-293T) was 2600 ± 500 nM.
